Assay results: patent US20250032485A1, “APPLICATION OF IMIDAZO [1,2-A] PYRAZINE COMPOUNDS OR THEIR PHARMACEUTICALLY ACCEPTABLE SALTS IN THE PREPARATION OF ANTI-CORONAVIRUS DRUGS” (GUANGZHOU MEDICAL UNIVERSITY, priority 2023, published 2025)
Like-named read-outs stand apart in the source and are kept apart here.

What was measured:
PLpro of SARS-CoV-2 [1] = target: T1, PLpro of SARS-CoV-2 (Severe acute respiratory syndrome coronavirus 2, UniProt P0DTD1); assay: Enzyme activity test in vitro: inhibition of PLpro at fixed concentration 50 μM (RLRGG-AMC substrate); assay type: biochemical; conditions: read-out: Inhibition rate at 50 μM (%)
PLpro of SARS-CoV-2 [2] = target: T1, PLpro of SARS-CoV-2; assay: IC50 determination of inhibition of PLpro activity (RLRGG-AMC substrate); assay type: biochemical; conditions: 13 concentrations 100 μM to 0.0244 μM, GraphPad Prism
[3] = compound 50 μM, 10 min preincubation at 37° C., Table 1

| Compound | inhibition at 50 µM (PLpro of SARS-CoV-2 [1]; [3]) [%] | IC50 (PLpro of SARS-CoV-2 [2]) [µM] | inhibition at 50 µM (PLpro of SARS-CoV-2 [1]) [%] |
| --- | --- | --- | --- |
| COC(=O)c1cccc(Nc2c(-c3ccc(N4CCOCC4)cc3)nc3cnccn23)c1 [P141, methyl 3-[[2-(4-morpholin-4-ylphenyl)imidazo [1,2-a]pyrazin-3-yl]amino]benzoate] | 63.8 | 38.1 |  |
| O=C(O)c1ccc(Nc2c(-c3ccc(Cl)cc3)nc3cnccn23)cc1 [P18224, 4-[[2-(4-chlorophenyl)imidazo[1,2-a]pyrazin-3-yl]amino] benzoic acid] | 54.6 | 38.3 |  |
| COc1ccc(-c2nc3cnccn3c2Nc2ccc(C(N)=O)cc2)cc1 [P19442, 4-[[2-(4-methoxyphenyl)imidazo[1,2-a]pyrazin-3-yl]amino] benzamide] | 61.1 | 43.2 |  |
| CNC(=O)c1cccc(Nc2c(-c3ccc(N(C)C)cc3)nc3cnccn23)c1 [P19443, 3-[[2-[4-(dimethyl-amino)phenyl]imidazo [1,2-a]pyrazin-3-yl]amino]-N-methyl-benzamide] | 53 | 31.1 |  |
| CSc1ccc(-c2nc3cnccn3c2Nc2ccc(C(=O)O)cc2)cc1 [P19445, 4-[[2-(4-methyl-sulfanylphenyl)imidazo [1,2-a]pyrazin-3-yl]amino]benzoic acid] | 50.2 | 47.6 |  |
| COC(=O)c1cccc(Nc2c(-c3ccc(N(C)C)cc3)nc3cnccn23)c1 [P19446, methyl 3-[[2-[4-(dimethyl-amino)phenyl]imidazo [1,2-a]pyrazin-3-yl]amino]benzoate] | 65.8 | 30.3 |  |
| Cc1ccc(-c2nc3cnccn3c2Nc2ccc(C(N)=O)cc2)cc1 [P19452, 4-[[2-(4-methyl-phenyl)imidazo[1,2-a]pyrazin-3-yl]amino] benzamide] | 53.1 | 28.4 |  |
| COc1ccc(Nc2c(-c3ccc(OC)c(OC)c3)nc3cnccn23)cc1OC [P19453, N,2-bis(3,4-dimethoxy-phenyl)imidazo [1,2-a]pyrazin-3-amine] | 65.5 | 6.45 |  |
| COc1ccc(-c2nc3cnccn3c2Nc2ccc(C(N)=O)cc2)cc1OC [P19454, 4-[[2-(3,4-dimethoxy-phenyl)imidazo [1,2-a]pyrazin-3-yl]amino]benzamide] | 53.8 | 36.8 |  |
| COc1cc(-c2nc3cnccn3c2Nc2ccc(C(=O)O)cc2)ccc1O [P19455, 4-[[2-(4-hydroxy-3-methoxyphenyl)imidazo[1,2-a]pyrazin-3-yl]amino]benzoic acid] | 53.1 | 26.6 |  |
| COC(=O)c1cccc(Nc2c(-c3cccc(Cl)c3)nc3cnccn23)c1 [P19456, methyl 3-[[2-(3-chlorophenyl)imidazo[1,2-a]pyrazin-3-yl]amino] benzoate] | 47.8 | 60.9 |  |
| CSc1ccc(-c2nc3cnccn3c2Nc2ccc(C(N)=O)cc2)cc1 [P19462, 4-[[2-(4-methyl-sulfanylphenyl)imidazo [1,2-a]pyrazin-3-yl]amino]benzamide] | 65 | 26 |  |
| COC(=O)c1ccc(-c2nc3cnccn3c2NC2CCCCC2)cc1 [P24359, methyl 4-[3-(cyclohexylamino)imidazo[1,2-a]pyrazin-2-yl]benzoate] |  |  | 37.1 |
| CCOC(=O)c1ccc(Nc2c(-c3ccc(N4CCOCC4)cc3)nc3cnccn23)cc1 [P24803, ethyl 4-[[2-(4-morpholin-4-ylphenyl)imidazo [1,2-a]pyrazin-3-yl]amino]benzoate] |  |  | 24.7 |
| O=C(O)c1ccc(Nc2c(-c3ccc(N4CCOCC4)cc3)nc3cnccn23)cc1 [P24813, 4-[[2-(4-morpholin-4-ylphenyl)imidazo [1,2-a]pyrazin-3-yl]amino]benzoic acid] |  |  | 31.9 |
| COC(=O)c1cccc(Nc2c(-c3ccc([N+](=O)[O-])cc3)nc3cnccn23)c1 [P24823, methyl 3-[[2-(4-nitrophenyl)imidazo[1,2-a]pyrazin-3-yl]amino] benzoate] |  |  | 31.2 |
| O=C(O)c1cccc(Nc2c(-c3ccc(N4CCOCC4)cc3)nc3cnccn23)c1 [P24833, 3-[[2-(4-morpholin-4-ylphenyl)imidazo [1,2-a]pyrazin-3-yl]amino]benzoic acid] |  |  | 35.1 |
| COc1ccc(-c2nc3cnccn3c2Nc2ccc3c(c2)OCCO3)cc1OC [P24852, N-(2,3-dihydro-1,4-benzodioxin-6-yl)-2-(3,4-dimethoxy-phenyl)imidazo[1,2-a]pyrazin-3-amine] |  |  | 24.9 |
| COC(=O)c1ccc(-c2nc3cnccn3c2Nc2ccc3c(c2)OCCO3)cc1 [P24862, methyl 4-[3-(2,3-dihydro-1,4-benzodioxin-6-ylamino)imidazo[1,2-a]pyrazin-2-yl] benzoate] |  |  | 30.1 |
| COC(=O)c1ccc(-c2nc3cnccn3c2Nc2ccc3c(c2)OCO3)cc1 [P24872, methyl 4-[3-(1,3-benzodioxol-5-ylamino)imidazo [1,2-a]pyrazin-2-yl]benzoate] |  |  | 27.2 |
| Fc1ccc(-c2nc3cnccn3c2Nc2ccc3c(c2)OCO3)cc1 [P28366, N-(1,3-benzodioxol-5-yl)-2-(4-fluoro-phenyl)imidazo[1,2-a]pyrazin-3-amine] |  |  | 36.3 |

| Compound | inhibition at 50 µM (PLpro of SARS-CoV-2 [1]; [3]) [%] | IC50 (PLpro of SARS-CoV-2 [2]) [µM] | inhibition at 50 µM (PLpro of SARS-CoV-2 [1]) [%] |
| --- | --- | --- | --- |
| COC(=O)c1ccc(-c2nc3cnccn3c2Nc2ccc(OC)cc2)cc1 [P28376, methyl 4-[3-(4-methoxy-anilino)imidazo[1,2-a]pyrazin-2-yl]benzoate] |  |  | 28.5 |
| CCNC(=O)c1cccc(Nc2c(-c3ccc(OC)cc3)nc3cnccn23)c1 [P28734, N-ethyl-3-[[2-(4-methoxyphenyl)imidazo[1,2-a]pyrazin-3-yl]amino]benzamide] |  |  | 41 |
| Cc1cccc(C)c1Nc1c(-c2ccccc2)nc2cnccn12 [P32333, N-(2,6-dimethylphenyl)-2-phenylimidazo [1,2-a]pyrazin-3-amine] |  |  | 35.8 |
| COC(=O)c1cccc(Nc2c(-c3cccc(Br)c3)nc3cnccn23)c1 [P32343, methyl 3-[[2-(3-bromophenyl)imidazo[1,2-a]pyrazin-3-yl]amino] benzoate] |  |  | 12.9 |
| CCc1cccc(C)c1Nc1c(-c2ccc(C(=O)OC)cc2)nc2cnccn12 [P36232, methyl 4-[3-(2-ethyl-6-methylanilino)imidazo [1,2-a]pyrazin-2-yl]benzoate] |  |  | 20.3 |
| COC(=O)c1ccc(-c2nc3cnccn3c2NC2CCCC2)cc1 [P37287, methyl 4-[3-(cyclopentyl-amino)imidazo[1,2-a]pyrazin-2-yl] benzoate] |  |  | 21 |
| COC(=O)c1cccc(Nc2c(-c3cccc(O)c3)nc3cnccn23)c1 [P37288, methyl 3-[[2-(3-hydroxy-phenyl)imidazo[1,2-a]pyrazin-3-yl]amino]benzoate] |  |  | 13.2 |
| COC(=O)c1ccc(-c2nc3cnccn3c2Nc2ccc(C(C)C)cc2)cc1 [P37297, methyl 4-[3-(4-propan-2-ylanilino)imidazo[1,2-a]pyrazin-2-yl] benzoate] |  |  | 22.3 |
| CSc1ccc(-c2nc3cnccn3c2Nc2cccc(C(=O)O)c2)cc1 [P37298, 3-[[2-(4-methyl-sulfanylphenyl)imidazo [1,2-a]pyrazin-3-yl]amino]benzoic acid] |  |  | 33.6 |
| COC(=O)c1ccc(-c2nc3cnccn3c2Nc2c(C)cccc2C)cc1 [P37307, methyl 4-[3-(2,6-dimethyl-anilino)imidazo[1,2-a]pyrazin-2-yl] benzoate] |  |  | 43.4 |
| Cc1ccc(-c2nc3cnccn3c2Nc2cccc(C(=O)O)c2)cc1 [P37308, 3-[[2-(4-methyl-phenyl)imidazo[1,2-a]pyrazin-3-yl]amino] benzoic acid] |  |  | 20.8 |
| COC(=O)c1ccc(-c2nc3cnccn3c2Nc2cccc(C(F)(F)F)c2)cc1 [P37317, methyl 4-[3-[3-(trifluoro-methyl)anilino]imidazo [1,2-a]pyrazin-2-yl]benzoate] |  |  | 27.6 |
| O=C(O)c1cccc(Nc2c(-c3ccccc3O)nc3cnccn23)c1 [P37318, 3-[[2-(2-hydroxy-phenyl)imidazo[1,2-a]pyrazin-3-yl]amino] benzoic acid] |  |  | 15.9 |
| COC(=O)c1cccc(Nc2c(-c3ccc(O)cc3)nc3cnccn23)c1 [P37327, methyl 3-[[2-(4-hydroxy-phenyl)imidazo[1,2-a]pyrazin-3-yl]amino] benzoate] |  |  | 48.5 |
| O=C(O)c1cccc(Nc2c(-c3ccc([N+](=O)[O-])cc3)nc3cnccn23)c1 [P37328, 3-[[2-(4-nitrophenyl)imidazo[1,2-a]pyrazin-3-yl]amino] benzoic acid] |  |  | 17.2 |
| COC(=O)c1cccc(Nc2c(-c3ccc(Cl)cc3)nc3cnccn23)c1 [P37337, methyl 3-[[2-(4-chlorophenyl)imidazo[1,2-a]pyrazin-3-yl]amino] benzoate] |  |  | 23 |
| O=C(O)c1cccc(Nc2c(-c3cccc(O)c3)nc3cnccn23)c1 [P37338, 3-[[2-(3-hydroxy-phenyl)imidazo[1,2-a]pyrazin-3-yl]amino] benzoic acid] |  |  | 11.7 |
| COC(=O)c1cccc(Nc2c(-c3ccccc3O)nc3cnccn23)c1 [P37347, methyl 3-[[2-(2-hydroxy-phenyl)imidazo[1,2-a]pyrazin-3-yl]amino] benzoate] |  |  | 25 |
| CCc1cccc(C)c1Nc1c(-c2ccc(N)cc2)nc2cnccn12 [P37348, 2-(4-aminophenyl)-N-(2-ethyl-6-methyl-phenyl)imidazo[1,2-a]pyrazin-3-amine] |  |  | 16 |
| Fc1ccc(-c2nc3cnccn3c2Nc2ccc(Cl)cc2)cc1 [P37356, N-(4-chlorophenyl)-2-(4-fluorophenyl) imidazo[1,2-a] pyrazin-3-amine] |  |  | 3.18 |
| COC(=O)c1cccc(Nc2c(-c3ccc(F)cc3)nc3cnccn23)c1 [P37357, methyl 3-[[2-(4-fluorophenyl)imidazo[1,2-a]pyrazin-3-yl]amino] benzoate] |  |  | 4.32 |
